Results reported in US20120029187A1, “HALOALKYLSULFONANILIDE DERIVATIVE” (Nissan Chemical Industries, Ltd., priority 2009, published 2012).

Tests used:
Assay type in all cases: in vivo
barnyardgrass [1] = test: Test Example 1: herbicidal effects in preemergence treatment under submerged conditions; details: dose 2.52 g/a
Summary of the method: (§1)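 Score 0–5 by mortality (5: ≥90%; 0: <5%), read 3 weeks post-application. Paddy-type cups: alluvial soil under 4 cm water, weeds seeded plus transplanted 2.5-leaf rice; diluted EC dosed onto water surface same day as sowing, g/a basis; greenhouse 25 to 30° C.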

bulrush [2] = test: as above; details: dose 2.52 g/a
Summary of the method: as §1

ducksalad [3] = test: as above; details: dose 2.52 g/a
Summary of the method: as §1

transplanted rice = test: Test Example 1: preemergence treatment under submerged conditions, effect on crop; details: dose 2.52 g/a
Summary of the method: as §1

barnyardgrass [4] = test: Test Example 2: herbicidal effects during the vegetation period under submerged conditions; details: treatment during the vegetation period under submerged conditions; dose 2.52 g/a
Summary of the method: (§2)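 Barnyardgrass, bulrush and ducksalad were co-sown in alluvial soil flooded to 4 cm and grown in a greenhouse at 25 to 30° C. At the 1- or 2-leaf stage, water-diluted emulsifiable concentrates went onto the water surface at set doses (g/a). Herbicidal effect was scored three weeks later on a graded scale.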

bulrush [5] = test: as above; details: treatment during the vegetation period under submerged conditions; dose 2.52 g/a
Summary of the method: as §2

ducksalad [6] = test: as above; details: treatment during the vegetation period under submerged conditions; dose 2.52 g/a
Summary of the method: as §2

Italian ryegrass [7] = test: Test Example 3: herbicidal effects in soil treatment; details: dose 3.2 g/a
Summary of the method: (§3)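 Seeds were sown in sterilized diluvial soil and covered with about 1.5 cm of soil. Compounds, formulated as emulsifiable concentrates and diluted with water, were sprayed evenly over the soil surface at set doses in g/a. Herbicidal effect was scored on a rating scale three weeks later.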

barnyardgrass [8] = test: as above; details: dose 3.2 g/a
Summary of the method: as §3

beadstraw [9] = test: as above; details: dose 3.2 g/a
Summary of the method: as §3

common chickweed [10] = test: as above; details: dose 3.2 g/a
Summary of the method: as §3

common lambsquater [11] = test: as above; details: dose 3.2 g/a
Summary of the method: as §3

common ragweed [12] = test: as above; details: dose 3.2 g/a
Summary of the method: as §3

giant foxtail [13] = test: as above; details: dose 3.2 g/a
Summary of the method: as §3

large crabgrass [14] = test: as above; details: dose 3.2 g/a
Summary of the method: as §3

posumbu knotweed [15] = test: as above; details: dose 3.2 g/a
Summary of the method: as §3

redroot pigweed [16] = test: as above; details: dose 3.2 g/a
Summary of the method: as §3

velvetleaf [17] = test: as above; details: dose 3.2 g/a
Summary of the method: as §3

water foxtail [18] = test: as above; details: dose 3.2 g/a
Summary of the method: as §3

Italian ryegrass [19] = test: Test Example 4: herbicidal effect in foliage treatment; details: dose 3.2 g/a, three weeks after the application
Summary of the method: (§4)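 Herbicidal effect was rated on an evaluation scale three weeks after treatment. Plants had been raised 14 days at 25 to 30° C in sterilized diluvial soil, then received foliar sprays of emulsifiable concentrate diluted in water at predetermined doses expressed as g per are.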

barnyardgrass [20] = test: as above; details: dose 3.2 g/a, three weeks after the application
Summary of the method: as §4

beadstraw [21] = test: as above; details: dose 3.2 g/a, three weeks after the application
Summary of the method: as §4

common chickweed [22] = test: as above; details: dose 3.2 g/a, three weeks after the application
Summary of the method: as §4

common lambsquater [23] = test: as above; details: dose 3.2 g/a, three weeks after the application
Summary of the method: as §4

common ragweed [24] = test: as above; details: dose 3.2 g/a, three weeks after the application
Summary of the method: as §4

giant foxtail [25] = test: as above; details: dose 3.2 g/a, three weeks after the application
Summary of the method: as §4

large crabgrass [26] = test: as above; details: dose 3.2 g/a, three weeks after the application
Summary of the method: as §4

posumbu knotweed [27] = test: as above; details: dose 3.2 g/a, three weeks after the application
Summary of the method: as §4

redroot pigweed [28] = test: as above; details: dose 3.2 g/a, three weeks after the application
Summary of the method: as §4

velvetleaf [29] = test: as above; details: dose 3.2 g/a, three weeks after the application
Summary of the method: as §4

water foxtail [30] = test: as above; details: dose 3.2 g/a, three weeks after the application
Summary of the method: as §4

Compound	A: barnyardgrass, herbicidal effect (evaluation scale 0-5) (barnyardgrass [1])	B: bulrush, herbicidal effect (evaluation scale 0-5) (bulrush [2])	C: ducksalad, herbicidal effect (evaluation scale 0-5) (ducksalad [3])	a: transplanted rice, effect on crop (evaluation scale 0-5) (transplanted rice)	A: barnyardgrass, herbicidal effect (evaluation scale 0-5) (barnyardgrass [4])	B: bulrush, herbicidal effect (evaluation scale 0-5) (bulrush [5])	C: ducksalad, herbicidal effect (evaluation scale 0-5) (ducksalad [6])	herbicidal effect, H: Italian ryegrass (Italian ryegrass [7])	herbicidal effect, A: barnyardgrass (barnyardgrass [8])	herbicidal effect, O: beadstraw (beadstraw [9])	herbicidal effect, N: common chickweed (common chickweed [10])	herbicidal effect, L: common lambsquater (common lambsquater [11])	herbicidal effect, J: common ragweed (common ragweed [12])	herbicidal effect, E: giant foxtail (giant foxtail [13])	herbicidal effect, D: large crabgrass (large crabgrass [14])	herbicidal effect, M: posumbu knotweed (posumbu knotweed [15])	herbicidal effect, K: redroot pigweed (redroot pigweed [16])	herbicidal effect, I: velvetleaf (velvetleaf [17])	herbicidal effect, G: water foxtail (water foxtail [18])	H: Italian ryegrass, herbicidal effect (Italian ryegrass [19])	other results
CC1CON(Cc2ccccc2NS(=O)(=O)C(F)(F)F)C(=O)O1 (centres unmarked) [III-3]	4 (mortality of at least 70% and less than 90%)	5 (mortality of 90% or above (nearly complete death))	5 (mortality of 90% or above (nearly complete death))	0 (mortality of less than 5% (almost ineffective))	5 (mortality of 90% or above (nearly complete death))	5 (mortality of 90% or above (nearly complete death))	5 (mortality of 90% or above (nearly complete death))	0 (mortality of less than 5% (almost ineffective))	5 (mortality of 90% or above (nearly complete death))	0 (mortality of less than 5% (almost ineffective))	4 (mortality of at least 70% and less than 90%)	0 (mortality of less than 5% (almost ineffective))	5 (mortality of 90% or above (nearly complete death))	5 (mortality of 90% or above (nearly complete death))	5 (mortality of 90% or above (nearly complete death))	5 (mortality of 90% or above (nearly complete death))	0 (mortality of less than 5% (almost ineffective))	1 (mortality of at least 5% and less than 20%)	5 (mortality of 90% or above (nearly complete death))	0 (mortality of less than 5% (almost ineffective))	A: barnyardgrass, herbicidal effect (barnyardgrass [20]): 5 (mortality of 90% or above (nearly complete death)); O: beadstraw, herbicidal effect (beadstraw [21]): 4 (mortality of at least 70% and less than 90%); N: common chickweed, herbicidal effect (common chickweed [22]): 4 (mortality of at least 70% and less than 90%); L: common lambsquater, herbicidal effect (common lambsquater [23]): 0 (mortality of less than 5% (almost ineffective)); J: common ragweed, herbicidal effect (common ragweed [24]): 4 (mortality of at least 70% and less than 90%); E: giant foxtail, herbicidal effect (giant foxtail [25]): 4 (mortality of at least 70% and less than 90%); D: large crabgrass, herbicidal effect (large crabgrass [26]): 4 (mortality of at least 70% and less than 90%); M: posumbu knotweed, herbicidal effect (posumbu knotweed [27]): 2 (mortality of at least 20% and less than 40%); K: redroot pigweed, herbicidal effect (redroot pigweed [28]): 0 (mortality of less than 5% (almost ineffective)); I: velvetleaf, herbicidal effect (velvetleaf [29]): 2 (mortality of at least 20% and less than 40%); G: water foxtail, herbicidal effect (water foxtail [30]): 5 (mortality of 90% or above (nearly complete death))
CCC1CON(Cc2ccccc2NS(=O)(=O)C(F)(F)F)C(=O)O1 (centres unmarked) [III-5]	5 (mortality of 90% or above (nearly complete death))	5 (mortality of 90% or above (nearly complete death))	5 (mortality of 90% or above (nearly complete death))	0 (mortality of less than 5% (almost ineffective))	5 (mortality of 90% or above (nearly complete death))	5 (mortality of 90% or above (nearly complete death))	5 (mortality of 90% or above (nearly complete death))	5 (mortality of 90% or above (nearly complete death))	5 (mortality of 90% or above (nearly complete death))	4 (mortality of at least 70% and less than 90%)	5 (mortality of 90% or above (nearly complete death))	5 (mortality of 90% or above (nearly complete death))	4 (mortality of at least 70% and less than 90%)	5 (mortality of 90% or above (nearly complete death))	5 (mortality of 90% or above (nearly complete death))	4 (mortality of at least 70% and less than 90%)	0 (mortality of less than 5% (almost ineffective))	5 (mortality of 90% or above (nearly complete death))	5 (mortality of 90% or above (nearly complete death))	1 (mortality of at least 5% and less than 20%)	A: barnyardgrass, herbicidal effect (barnyardgrass [20]): 5 (mortality of 90% or above (nearly complete death)); O: beadstraw, herbicidal effect (beadstraw [21]): 3 (mortality of at least 40% and less than 70%); N: common chickweed, herbicidal effect (common chickweed [22]): 3 (mortality of at least 40% and less than 70%); L: common lambsquater, herbicidal effect (common lambsquater [23]): 3 (mortality of at least 40% and less than 70%); J: common ragweed, herbicidal effect (common ragweed [24]): 4 (mortality of at least 70% and less than 90%); E: giant foxtail, herbicidal effect (giant foxtail [25]): 3 (mortality of at least 40% and less than 70%); D: large crabgrass, herbicidal effect (large crabgrass [26]): 0 (mortality of less than 5% (almost ineffective)); M: posumbu knotweed, herbicidal effect (posumbu knotweed [27]): 0 (mortality of less than 5% (almost ineffective)); K: redroot pigweed, herbicidal effect (redroot pigweed [28]): 0 (mortality of less than 5% (almost ineffective)); I: velvetleaf, herbicidal effect (velvetleaf [29]): 3 (mortality of at least 40% and less than 70%); G: water foxtail, herbicidal effect (water foxtail [30]): 5 (mortality of 90% or above (nearly complete death))
